Where “and” joins values, the source holds several entries; their conditions need not be identical. Equal entries are not always repeated.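 Following 48 hours of exposure in 96-well plates, responses at five concentrations were used to interpolate endpoints linearly. Abbreviation: GI50, concentration required for 50% inhibition of growth. TGI marks complete inhibition of growth.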 Where a SMILES comes first, the peptide text is derived from it. [ ]: non-standard residue; d: D form. 2Nal = N[CH](Cc1ccc2ccccc2c1)C(=O)O

Consider 16 compounds from PubChem BioAssay (NCI).

Among the test systems are EKVX NSCLC; KM12 colon; UACC-62 melanoma; 786-0 renal; HCT-116 colon; UO-31 renal; SK-MEL-5 melanoma; SK-MEL-2 melanoma; MCF7 breast.
Holding throughout (assay): NCI-60 cell line screen, 48 h

On to `COC(=O)C(C(=O)C(=O)Nc1ccccc1OC)c1csc(-n2nc(-c3ccccc3)cc2-c2ccccc2)n1` (stereo unspecified), for which the TGI in the test with EKVX NSCLC, in the test on KM12 colon, in the test on UACC-62 melanoma, in the test on 786-0 renal, with HCT-116 colon and in the test on UO-31 renal was over 100 µM throughout.

On to `Cc1ccc(C(=O)/C=C/c2ccccc2Cl)cc1`, for which the TGI with EKVX NSCLC is 33.6 µM; with KM12 colon, 30.2 µM; in the test with UACC-62 melanoma, 27.7 µM; with SK-MEL-5 melanoma, 38.5 µM; in the test with 786-0 renal it was 29.7 µM; with HCT-116 colon, 25.6 µM. For the same compound, the TGI in the test with UO-31 renal was determined as 32.8 µM.

Regarding `N/C(=N\C(=S)N1CCCCC1)N1CCCCC1`, the TGI in the test with EKVX NSCLC, in the test on KM12 colon, in the test with UACC-62 melanoma, in the test with SK-MEL-2 melanoma, in the test with SK-MEL-5 melanoma and in the test with 786-0 renal was over 100 µM throughout. In addition, the TGI in the test on HCT-116 colon and in the test on UO-31 renal was over 100 µM in each case.

For the compound `O=C(Nc1cc(C(F)(F)F)ccc1Cl)C(=O)C(C(=O)c1ccc2ccccc2c1)C1OC(=O)c2ccccc21` (stereo unspecified), the TGI in the test on EKVX NSCLC stood at 34.8 µM; with KM12 colon it was 27.4 µM; with UACC-62 melanoma, 32.9 µM; in the test on SK-MEL-2 melanoma, 28.7 µM; with SK-MEL-5 melanoma it was 22.5 µM; with 786-0 renal it was 17.7 µM. Further, the TGI in the test on HCT-116 colon turned out to be 30.2 µM; with UO-31 renal it was 28.2 µM.

With `CC1CC(=O)C(C(O)CC2CC(=O)N(c3ccccc3)C(=O)C2)C(C)C1` (stereo unspecified), the TGI in the test with EKVX NSCLC, with KM12 colon, in the test on UACC-62 melanoma, in the test on 786-0 renal, with HCT-116 colon and in the test with UO-31 renal was over 100 µM each time.

Consider `O=C1CCC(=O)c2cc(Br)ccc2N1`, for which the TGI with EKVX NSCLC, in the test with KM12 colon, in the test with UACC-62 melanoma, in the test with SK-MEL-2 melanoma, in the test with SK-MEL-5 melanoma and in the test with 786-0 renal was over 100 µM in each case. The TGI with HCT-116 colon is over 55 µM; with UO-31 renal, over 100 µM.

In the case of `CN(C)CC1(C)CC/C(=C\c2ccc3c(c2)OCO3)C1=O` (stereo unspecified), the TGI in the test on KM12 colon, in the test with UACC-62 melanoma, in the test with SK-MEL-2 melanoma, in the test on SK-MEL-5 melanoma, in the test with 786-0 renal and with HCT-116 colon was over 100 µM each time. The TGI with UO-31 renal is over 100 µM.

For `CC(NC(=O)C(N)Cc1ccccc1)C(=O)NC(Cc1ccc(O)cc1)C(=O)NC(Cc1c[nH]c2ccccc12)C(=O)NC(CCCCN)C(=O)NC(C(=O)NC(C)C(=O)NC(Cc1ccc2ccccc2c1)C(N)=O)C(C)C` (stereo unspecified) (H-FAYWKVA[2Nal]-NH2; configuration not given here), the TGI in the test on MCF7 breast was over 12.5 µM; with EKVX NSCLC it was > 12.5 µM and 81 µM; in the test with KM12 colon it was > 12.5 µM and 53.3 µM; with UACC-62 melanoma, > 12.5 µM and 75.7 µM; in the test on SK-MEL-2 melanoma, > 12.5 µM and 52.1 µM; with SK-MEL-5 melanoma, over 12.5 µM. For the same compound, the TGI with 786-0 renal was > 12.5 µM and 65.1 µM; with HCT-116 colon, over 100 µM; with UO-31 renal, > 12.5 µM and 58.6 µM. Moreover, the GI50 with EKVX NSCLC was 25.9 µM; with KM12 colon, 21.9 µM; in the test on UACC-62 melanoma it was 26.8 µM; in the test on SK-MEL-2 melanoma it was 25.1 µM; in the test with 786-0 renal, 24.8 µM; in the test on HCT-116 colon, 33.9 µM. For the same compound, in the test with UO-31 renal, the GI50 is 27.1 µM.

`CC(=O)O[C@H]1CCC2[C@@H]3CCC4C(=O)c5oncc5C[C@]4(C)C3CC[C@@]21C` (stereo partly specified): the TGI in the test with EKVX NSCLC, in the test on KM12 colon, in the test on UACC-62 melanoma, with SK-MEL-2 melanoma, with SK-MEL-5 melanoma and in the test with 786-0 renal was over 100 µM throughout.

As for `O=C(O)C1Cc2nc[nH]c2CN1` (stereo unspecified), the TGI in the test on EKVX NSCLC, in the test with KM12 colon, in the test on UACC-62 melanoma, in the test with SK-MEL-2 melanoma, in the test with SK-MEL-5 melanoma and in the test on 786-0 renal was over 100 µM each time. Moreover, the TGI with HCT-116 colon and with UO-31 renal was over 100 µM in each case.

Turning to `O=C(C#Cc1c[nH]c(=O)[nH]c1=O)c1ccccc1`, the TGI in the test with EKVX NSCLC is 24.9 µM; in the test on KM12 colon, 29 µM; in the test on UACC-62 melanoma, 21.8 µM; with SK-MEL-2 melanoma it was 24.8 µM; in the test with SK-MEL-5 melanoma, 25.2 µM; in the test with 786-0 renal, 24.6 µM. Moreover, the TGI is 22 µM in the test on HCT-116 colon and 31.8 µM in the test on UO-31 renal.

Turning to `COC1OC(C)C(OC(=O)C(C)(C)C)C(C)(O)C1O` (stereo unspecified), the TGI in the test on KM12 colon, in the test with UACC-62 melanoma, in the test with SK-MEL-5 melanoma, with 786-0 renal and in the test with HCT-116 colon was over 100 µM each time.

`O=C1OC(=O)C2C3CCC(O3)C12` (stereo unspecified): the TGI with EKVX NSCLC, with KM12 colon, in the test with UACC-62 melanoma, in the test on SK-MEL-2 melanoma, in the test with SK-MEL-5 melanoma and in the test on 786-0 renal was over 100 µM in each case. In addition, the TGI in the test with HCT-116 colon and in the test with UO-31 renal was over 100 µM in each case.

On to `Cc1ccc(NC(=O)SCCC(=O)O)cc1NC(=O)SCCC(=O)O`, for which the TGI in the test on EKVX NSCLC, in the test on KM12 colon, in the test with SK-MEL-2 melanoma, with 786-0 renal, in the test with HCT-116 colon and in the test with UO-31 renal was over 100 µM in each case.

For `CCCCCN(CCCCC)C(=O)[C@@H](CCC(=O)OCc1ccccc1)NC(=O)c1cc2ccccc2[nH]1`, the TGI in the test on EKVX NSCLC, in the test with KM12 colon, with UACC-62 melanoma, with SK-MEL-2 melanoma, in the test with 786-0 renal and in the test with HCT-116 colon was over 100 µM in each case. Also, in the test on UO-31 renal, the TGI is over 100 µM.

With `COc1ccc(OC)c(CCc2cc(OC)c(OC)cc2C)c1`, the TGI in the test on EKVX NSCLC, in the test on KM12 colon, in the test on UACC-62 melanoma, in the test with SK-MEL-2 melanoma, in the test on SK-MEL-5 melanoma and in the test on 786-0 renal was over 100 µM in each case. For the same compound, the TGI in the test with UO-31 renal was over 100 µM.
